Patent US11993599B2, “Therapeutic compounds” (Genentech, Inc., priority 2021, dated 2024)

Legend:
[1] = target: T1, BRG1 (Homo sapiens, UniProt P51532); assay: Immunofluorescence assay for BRG1 degradation in SW1573 cells; format: cell-based; settings: 20 hours incubation; for DC50: immunofluorescence mean nuclear signal, read-out: BRG1 IF Degradation IC50; for Dmax: SW1573, 20 h, normalized to a known degrader control, read-out: BRG1 IF Degradation Sinf (%)
T1 construct: either BRM primary antibody (Cell signaling Cat #11966) or BRG primary antibody (Abcam, ab 110641); endogenous in cells; host or cells: SW1573
T1 sequence (P51532 whole entry): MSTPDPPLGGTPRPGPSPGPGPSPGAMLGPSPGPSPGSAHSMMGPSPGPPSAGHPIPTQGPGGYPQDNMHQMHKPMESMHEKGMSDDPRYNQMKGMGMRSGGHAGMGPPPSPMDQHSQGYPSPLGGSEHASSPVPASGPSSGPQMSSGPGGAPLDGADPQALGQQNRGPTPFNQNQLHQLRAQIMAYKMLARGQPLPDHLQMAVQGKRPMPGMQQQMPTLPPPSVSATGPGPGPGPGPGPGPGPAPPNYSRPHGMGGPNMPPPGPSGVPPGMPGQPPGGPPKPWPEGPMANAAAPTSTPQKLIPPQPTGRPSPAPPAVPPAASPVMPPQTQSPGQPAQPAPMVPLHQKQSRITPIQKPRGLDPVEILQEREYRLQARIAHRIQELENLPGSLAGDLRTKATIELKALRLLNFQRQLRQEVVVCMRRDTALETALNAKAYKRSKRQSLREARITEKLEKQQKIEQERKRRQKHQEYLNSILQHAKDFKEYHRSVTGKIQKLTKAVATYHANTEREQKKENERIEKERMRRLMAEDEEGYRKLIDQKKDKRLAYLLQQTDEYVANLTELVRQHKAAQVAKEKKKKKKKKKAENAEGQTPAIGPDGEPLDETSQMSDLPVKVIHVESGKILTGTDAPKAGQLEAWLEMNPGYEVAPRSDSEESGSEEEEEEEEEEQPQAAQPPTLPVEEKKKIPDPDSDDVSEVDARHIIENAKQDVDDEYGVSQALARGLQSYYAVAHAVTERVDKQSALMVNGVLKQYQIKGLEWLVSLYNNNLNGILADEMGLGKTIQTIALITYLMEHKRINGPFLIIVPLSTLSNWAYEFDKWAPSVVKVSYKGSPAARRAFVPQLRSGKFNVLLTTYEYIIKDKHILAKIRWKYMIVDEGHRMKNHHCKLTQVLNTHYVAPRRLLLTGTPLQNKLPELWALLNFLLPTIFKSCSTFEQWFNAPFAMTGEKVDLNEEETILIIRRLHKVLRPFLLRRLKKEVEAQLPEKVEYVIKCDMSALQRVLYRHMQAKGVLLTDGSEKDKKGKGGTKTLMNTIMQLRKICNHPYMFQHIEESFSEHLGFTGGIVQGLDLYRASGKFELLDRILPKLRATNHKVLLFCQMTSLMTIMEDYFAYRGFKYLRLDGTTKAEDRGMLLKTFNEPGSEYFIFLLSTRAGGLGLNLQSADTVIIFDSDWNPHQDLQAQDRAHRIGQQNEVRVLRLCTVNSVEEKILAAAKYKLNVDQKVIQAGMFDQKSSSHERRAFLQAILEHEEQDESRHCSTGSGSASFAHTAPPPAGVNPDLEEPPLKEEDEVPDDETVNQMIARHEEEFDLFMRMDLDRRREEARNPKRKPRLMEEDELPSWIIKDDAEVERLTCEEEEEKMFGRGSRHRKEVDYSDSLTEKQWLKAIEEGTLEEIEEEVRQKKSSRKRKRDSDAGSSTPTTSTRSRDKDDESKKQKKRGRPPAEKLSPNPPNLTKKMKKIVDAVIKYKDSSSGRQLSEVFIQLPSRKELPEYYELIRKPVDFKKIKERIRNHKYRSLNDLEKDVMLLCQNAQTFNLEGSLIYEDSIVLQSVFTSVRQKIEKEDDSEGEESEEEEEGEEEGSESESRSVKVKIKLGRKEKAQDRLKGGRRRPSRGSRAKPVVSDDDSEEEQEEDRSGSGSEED
How it was run: (§1)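 SW1573 cells treated with compound for 20 h, then fixed, permeabilized and immunostained for BRM or BRG1 with Hoechst nuclear counterstain. Mean nuclear intensity per cell quantified by high-content imaging; data normalized to a reference degrader control, with floating-maximum curve fits giving IC50 and Dmax.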

[2] = target: BRM (Homo sapiens, UniProt P51531); assay: Immunofluorescence assay for BRM degradation in SW1573 cells; format: cell-based; parameters: treated overnight at 4° C. with either BRM primary antibody (Cell signaling Cat #11966) or BRG primary antibody; endogenous in cells; host or cells: SW1573; settings: 20 hours incubation; for DC50: immunofluorescence mean nuclear signal, read-out: BRM IF Degradation IC50; for BRM IF Degradation Sinf (%): normalized to a known degrader control
BRM, sequence (P51531 whole entry): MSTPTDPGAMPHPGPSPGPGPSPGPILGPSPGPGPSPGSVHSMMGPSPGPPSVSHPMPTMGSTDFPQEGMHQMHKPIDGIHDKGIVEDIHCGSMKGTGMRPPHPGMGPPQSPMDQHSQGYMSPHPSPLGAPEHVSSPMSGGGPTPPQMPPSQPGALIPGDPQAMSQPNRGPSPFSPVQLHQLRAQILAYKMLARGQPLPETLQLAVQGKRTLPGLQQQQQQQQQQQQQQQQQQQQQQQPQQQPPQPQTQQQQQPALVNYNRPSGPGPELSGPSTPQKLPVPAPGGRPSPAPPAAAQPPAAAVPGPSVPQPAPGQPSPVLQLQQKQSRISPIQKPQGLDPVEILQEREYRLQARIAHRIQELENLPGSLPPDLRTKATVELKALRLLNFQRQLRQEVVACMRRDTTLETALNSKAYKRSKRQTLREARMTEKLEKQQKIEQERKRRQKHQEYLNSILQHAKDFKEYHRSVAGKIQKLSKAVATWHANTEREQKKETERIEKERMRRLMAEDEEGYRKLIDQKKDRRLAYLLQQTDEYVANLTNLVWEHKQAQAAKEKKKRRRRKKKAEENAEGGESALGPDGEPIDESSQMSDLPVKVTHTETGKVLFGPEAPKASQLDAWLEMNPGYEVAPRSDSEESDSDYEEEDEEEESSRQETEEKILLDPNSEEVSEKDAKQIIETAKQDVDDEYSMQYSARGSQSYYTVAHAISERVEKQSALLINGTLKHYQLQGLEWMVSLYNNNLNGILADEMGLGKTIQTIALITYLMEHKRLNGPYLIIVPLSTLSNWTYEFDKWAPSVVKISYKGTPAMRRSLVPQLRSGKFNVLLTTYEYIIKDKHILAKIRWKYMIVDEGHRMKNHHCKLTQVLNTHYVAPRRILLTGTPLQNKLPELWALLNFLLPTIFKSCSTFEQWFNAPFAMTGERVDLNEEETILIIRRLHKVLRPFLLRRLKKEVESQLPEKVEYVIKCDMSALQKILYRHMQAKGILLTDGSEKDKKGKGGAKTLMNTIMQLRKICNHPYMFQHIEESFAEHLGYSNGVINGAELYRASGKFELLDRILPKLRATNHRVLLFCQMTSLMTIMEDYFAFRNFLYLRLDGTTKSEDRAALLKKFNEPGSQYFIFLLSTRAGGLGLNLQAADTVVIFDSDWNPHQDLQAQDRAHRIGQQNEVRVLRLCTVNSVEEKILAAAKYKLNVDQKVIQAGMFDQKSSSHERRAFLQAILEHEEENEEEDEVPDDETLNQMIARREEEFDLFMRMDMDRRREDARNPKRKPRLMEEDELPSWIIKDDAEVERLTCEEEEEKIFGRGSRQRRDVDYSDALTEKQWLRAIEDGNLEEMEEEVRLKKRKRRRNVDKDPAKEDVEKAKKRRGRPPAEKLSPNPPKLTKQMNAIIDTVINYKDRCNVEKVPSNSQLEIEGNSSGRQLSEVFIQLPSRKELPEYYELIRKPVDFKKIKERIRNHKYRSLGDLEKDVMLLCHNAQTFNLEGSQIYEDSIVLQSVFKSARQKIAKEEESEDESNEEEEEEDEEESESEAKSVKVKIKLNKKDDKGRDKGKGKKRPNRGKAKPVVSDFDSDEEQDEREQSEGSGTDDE
How it was run: as §1

| Compound | DC50 [1] [nM] | Dmax [1] [%] | DC50 [2] [nM] | BRM IF Degradation Sinf (%) [2] |
| --- | --- | --- | --- | --- |
| Nc1nnc(-c2ccccc2O)cc1N1CC2CCC(C1)N2c1ccnc(C#CCN2CCC3(CCCC3)C2)c1 [Compound 127, 2-[6-amino-5-[8-[2-[3-(2-azaspiro[4.4]nonan-2-yl)prop-1-ynyl]-4-pyridyl]-3,8-diazabicyclo[3.2.1]octan-3-yl]pyridazin-3-yl]phenol] | < 10 | 30 to 70 | < 10 | E (E indicates −30%-−70%) |
| CO[C@H]1CCN(CC#Cc2cc(N3C4CCC3CN(c3cc(-c5ccccc5O)nnc3N)C4)ccn2)C1 [Compound 128, 2-[6-amino-5-[8-[2-[3-[(3S)-3-methoxypyrrolidin-1-yl]prop-1-ynyl]-4-pyridyl]-3,8-diazabicyclo[3.2.1]octan-3-yl]pyridazin-3-yl]phenol] | < 10 | 30 to 70 | 10 to 100 | F (F indicates −71%-−120%) |
| Nc1nnc(-c2ccccc2O)cc1N1CC2CCC(C1)N2c1ccnc(C#CCN2CCC3(CCC3)C2)c1 [Compound 129, 2-[6-amino-5-[8-[2-[3-(6-azaspiro[3.4]octan-6-yl)prop-1-ynyl]-4-pyridyl]-3,8-diazabicyclo[3.2.1]octan-3-yl]pyridazin-3-yl]phenol] | < 10 | 30 to 70 | < 10 | E (E indicates −30%-−70%) |
| Nc1nnc(-c2ccccc2O)cc1N1CC2CCC(C1)N2c1ccnc(C#CCN2C[C@@H]3C[C@H]2C[C@H]3O)c1 [Compound 130, (1S,4S,5R)-2-[3-[4-[3-[3-amino-6-(2-hydroxyphenyl)pyridazin-4-yl]-3,8-diazabicyclo[3.2.1]octan-8-yl]-2-pyridyl]prop-2-ynyl]-2-azabicyclo[2.2.1]heptan-5-ol] | 10 to 100 | 30 to 70 | < 10 | E (E indicates −30%-−70%) |
| Nc1nnc(-c2ccccc2O)cc1N1CC2CCC(C1)N2c1ccnc(C#CCN2CCC(F)CC2)c1 [Compound 131, 2-[6-amino-5-[8-[2-[3-(4-fluoro-1-piperidyl)prop-1-ynyl]-4-pyridyl]-3,8-diazabicyclo[3.2.1]octan-3-yl]pyridazin-3-yl]phenol] | < 10 | 0 to 30 | < 10 | E (E indicates −30%-−70%) |
| Nc1nnc(-c2ccccc2O)cc1N1CC2CCC(C1)N2c1ccnc(C#CCN2CC3CC2CO3)c1 (centres unmarked) [Compound 132, 2-[6-amino-5-[8-[2-[3-(2-oxa-5-azabicyclo[2.2.1]heptan-5-yl)prop-1-ynyl]-4-pyridyl]-3,8-diazabicyclo[3.2.1]octan-3-yl]pyridazin-3-yl]phenol] | < 10 | 30 to 70 | < 10 | E (E indicates −30%-−70%) |
| Nc1nnc(-c2ccccc2O)cc1N1CC2CCC(C1)N2c1ccnc(C#CCN2CCC(F)C2)c1 (centres unmarked) [Compound 133, 2-[6-amino-5-[8-[2-[3-(3-fluoropyrrolidin-1-yl)prop-1-ynyl]-4-pyridyl]-3,8-diazabicyclo[3.2.1]octan-3-yl]pyridazin-3-yl]phenol] | < 10 | 0 to 30 | < 10 | E (E indicates −30%-−70%) |
| Nc1nnc(-c2ccccc2O)cc1N1CC2CCC(C1)N2c1ccnc(C#CCN2CCCC(CO)C2)c1 (centres unmarked) [Compound 134, 2-[6-amino-5-[8-[2-[3-[3-(hydroxymethyl)-1-piperidyl]prop-1-ynyl]-4-pyridyl]-3,8-diazabicyclo[3.2.1]octan-3-yl]pyridazin-3-yl]phenol] | 10 to 100 | 30 to 70 | 10 to 100 | E (E indicates −30%-−70%) |
| CC1(C)CN(CC#Cc2cc(N3C4CCC3CN(c3cc(-c5ccccc5O)nnc3N)C4)ccn2)C1 [Compound 135, 2-[6-amino-5-[8-[2-[3-(3,3-dimethylazetidin-1-yl)prop-1-ynyl]-4-pyridyl]-3,8-diazabicyclo[3.2.1]octan-3-yl]pyridazin-3-yl]phenol] | < 10 | 30 to 70 | < 10 | E (E indicates −30%-−70%) |
| Nc1nnc(-c2ccccc2O)cc1N1CC2CCC(C1)N2c1ccnc(C#CCN2CCC3(CC2)CC3)c1 [Compound 136, 2-(5-(8-(2-(3-(6-azaspiro[2.5]octan-6-yl)prop-1-yn-1-yl)pyridin-4-yl)-3,8-diazabicyclo[3.2.1]octan-3-yl)-6-aminopyridazin-3-yl)phenol] | < 10 | 30 to 70 | < 10 | E (E indicates −30%-−70%) |
| Nc1nnc(-c2ccccc2O)cc1N1CC2CCC(C1)N2c1ccnc(C#CCN2CC3CC3(CO)C2)c1 (centres unmarked) [Compound 137, 2-[6-amino-5-[8-[2-[3-[1-(hydroxymethyl)-3-azabicyclo[3.1.0]hexan-3-yl]prop-1-ynyl]-4-pyridyl]-3,8-diazabicyclo[3.2.1]octan-3-yl]pyridazin-3-yl]phenol] | < 10 | 30 to 70 | < 10 | E (E indicates −30%-−70%) |
| CC1CCN(CC#Cc2cc(N3C4CCC3CN(c3cc(-c5ccccc5O)nnc3N)C4)ccn2)CC1 [Compound 138, 2-[6-amino-5-[8-[2-[3-(4-methyl-1-piperidyl)prop-1-ynyl]-4-pyridyl]-3,8-diazabicyclo[3.2.1]octan-3-yl]pyridazin-3-yl]phenol] | < 10 | 30 to 70 | 10 to 100 | E (E indicates −30%-−70%) |
| N#CC1CCN(CC#Cc2cc(N3C4CCC3CN(c3cc(-c5ccccc5O)nnc3N)C4)ccn2)CC1 [Compound 139, 1-[3-[4-[3-[3-amino-6-(2-hydroxyphenyl)pyridazin-4-yl]-3,8-diazabicyclo[3.2.1]octan-8-yl]-2-pyridyl]prop-2-ynyl]piperidine-4-carbonitrile] | 10 to 100 | 0 to 30 | < 10 | E (E indicates −30%-−70%) |
| Nc1nnc(-c2ccccc2O)cc1N1CC2CCC(C1)N2c1ccnc(C#CCN2CCC3(CCOC3)C2)c1 (centres unmarked) [Compound 140, 2-[6-amino-5-[8-[2-[3-(2-oxa-7-azaspiro[4.4]nonan-7-yl)prop-1-ynyl]-4-pyridyl]-3,8-diazabicyclo[3.2.1]octan-3-yl]pyridazin-3-yl]phenol] | < 10 | 30 to 70 | < 10 | F (F indicates −71%-−120%) |
| Nc1nnc(-c2ccccc2O)cc1N1CC2CCC(C1)N2c1ccnc(C#CCN2CC3CCC2C3)c1 (centres unmarked) [Compound 141, 2-[6-amino-5-[8-[2-[3-(2-azabicyclo[2.2.1]heptan-2-yl)prop-1-ynyl]-4-pyridyl]-3,8-diazabicyclo[3.2.1]octan-3-yl]pyridazin-3-yl]phenol] | < 10 | 30 to 70 | < 10 | E (E indicates −30%-−70%) |
| Nc1nnc(-c2ccccc2O)cc1N1CC2CCC(C1)N2c1ccnc(C#CCN2CC(O)C2)c1 [Compound 142, 1-[3-[4-[3-[3-amino-6-(2-hydroxyphenyl)pyridazin-4-yl]-3,8-diazabicyclo[3.2.1]octan-8-yl]-2-pyridyl]prop-2-ynyl]azetidin-3-ol] | 10 to 100 | 30 to 70 | 10 to 100 | E (E indicates −30%-−70%) |
| Nc1nnc(-c2ccccc2O)cc1N1CC2CCC(C1)N2c1ccnc(C#CCN2CC3CC2CC3(F)F)c1 (centres unmarked) [Compound 143, 2-[6-amino-5-[8-[2-[3-(5,5-difluoro-2-azabicyclo[2.2.1]heptan-2-yl)prop-1-ynyl]-4-pyridyl]-3,8-diazabicyclo[3.2.1]octan-3-yl]pyridazin-3-yl]phenol] | < 10 | 0 to 30 | < 10 | E (E indicates −30%-−70%) |
| Nc1nnc(-c2ccccc2O)cc1N1CC2CCC(C1)N2c1ccnc(C#CCN2C3COCC2CC(F)C3)c1 (centres unmarked) [Compound 144, 2-[6-amino-5-[8-[2-[3-(7-fluoro-3-oxa-9-azabicyclo[3.3.1]nonan-9-yl)prop-1-ynyl]-4-pyridyl]-3,8-diazabicyclo[3.2.1]octan-3-yl]pyridazin-3-yl]phenol] | 10 to 100 | 0 to 30 | > 100 | E (E indicates −30%-−70%) |
| Nc1nnc(-c2ccccc2O)cc1N1CC2CCC(C1)N2c1ccnc(C#CCN2CCC3OCCC3C2)c1 (centres unmarked) [Compound 145, 2-[5-[8-[2-[3-(3,3a,4,6,7,7a-hexahydro-2H-furo[3,2-c]pyridin-5-yl)prop-1-ynyl]-4-pyridyl]-3,8-diazabicyclo[3.2.1]octan-3-yl]-6-amino-pyridazin-3-yl]phenol] | < 10 | 0 to 30 | < 10 | E (E indicates −30%-−70%) |
| Nc1nnc(-c2ccccc2O)cc1N1CC2CCC(C1)N2c1ccnc(C#CCN2CCC3CNCC32)c1 (centres unmarked) [Compound 146, 2-[5-[8-[2-[3-(3,3a,4,5,6,6a-hexahydro-2H-pyrrolo[3,4-b]pyrrol-1-yl)prop-1-ynyl]-4-pyridyl]-3,8-diazabicyclo[3.2.1]octan-3-yl]-6-amino-pyridazin-3-yl]phenol] | > 100 | 30 to 70 | > 100 | E (E indicates −30%-−70%) |
